From patent publication US7510843B2, “Use of a polypeptide for detecting, preventing or treating a pathological condition associated with a degenerative, neurological or autoimmune disease” (Biomerieux S.A., priority 1999, dated 2009)

Experiments:
[1] = Clinical monitoring of an MS patient after a treatment flash; format: in vivo, human; conditions: MS patient No. 2, progressive form, flash on D1 after attack; worsening signs at D60
Source text: (§1) Urines of this patient were collected during the progression of their disease. The patient was hospitalized on D0 for an attack.

[2] = system: GM2AP and Saposin B proteins in the urines; experiment: Elisa assay of GM2AP and Saposin B in the urine of an MS patient after a treatment flash; format: in vivo, human; conditions: MS patient No. 2, progressive form, up to 23 days; increase again, high at D60
Source text: as §1

## O=P1(N(CCCl)CCCl)NCCCO1 (centres unmarked) [Endoxan, cyclophosphamide]
[1]
  clinical effect of the flash: clinical improvement
[2]
  GM2AP and Saposin B concentrations in urine over time after the flash: decrease gradually over time
